What all share (experiment): combination Emax (second highest fraction inhibited in the dose matrix, 72 h); higher = more inhibition; extreme values may be limits of the assay
Assay [1] deals with COR-L88 (Small Cell Lung Carcinoma). In a few lines: (§1)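 Cell lines grown in DMEM/F12 or RPMI with 10% FBS were plated in 1536-well plates and held 24 hours at 37°C, 5% CO2 before 72 hours of exposure to two-drug dose matrices, with DMSO typically at 0.2%. CellTiter-Glo 2.0 luminescence gave viability, which was converted to inhibition. Vehicle wells were set to 0 and blank wells to 1. Combination Emax is the second-highest inhibition in the matrix, and Bliss excess is the observed combination effect minus the expected EA + EB − EA·EB, where EA and EB are the single-agent effects.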

The test system of assay [2] is UACC-257 (Melanoma). In a few lines: as §1
Assay [3] relates to MOLP-8 (Plasma Cell Myeloma). In a few lines:
as §1

Assay [4] deals with OVCAR-3 (Ovarian Carcinoma). In a few lines: as §1
Assay [5] relates to BxPC-3 (Pancreatic Carcinoma). A digest of the protocol: as §1
The test system of assay [6] is KP-4 (Pancreatic Carcinoma). In a few lines:
as §1

For assay [7], the system named is BHT-101 (Thyroid Gland Carcinoma). A digest of the protocol:
as §1

The subject of assay [8] is AM-38 (Glioblastoma). In a few lines: as §1
The subject of assay [9] is NCI-H226 (Mesothelioma). In a few lines:
as §1

Assay [10] concerns SAT (Head and Neck Carcinoma). A digest of the protocol: as §1
Assay [11] relates to LS-1034 (Colorectal Carcinoma). A digest of the protocol:
as §1

Assay [12] relates to C-33-A (Cervical Carcinoma). In a few lines:
as §1

In assay [13] the test system is LCLC-103H (Non-Small Cell Lung Carcinoma). In a few lines: as §1
Assay [14] has as its system SK-N-SH (Neuroblastoma). A digest of the protocol: as §1
Assay [15] concerns SCC-4 (Oral Cavity Carcinoma). In a few lines:
as §1

For assay [16], the system named is IA-LM (Non-Small Cell Lung Carcinoma). A digest of the protocol: as §1
The test system of assay [17] is NCI-H3118 (Head and Neck Carcinoma). A digest of the protocol: as §1
In assay [18] the test system is SNU-C2B (Colorectal Carcinoma). A digest of the protocol: as §1
Assay [19] has as its system CPC-N (Small Cell Lung Carcinoma). In a few lines:
as §1

Assay [20] concerns HT-1080 (Other Solid Carcinomas). In a few lines:
as §1

Consider `Cc1cc2ncnn2cc1Nc1ncc2c(n1)n(C1CCOCC1)c(=O)n2C` [AZD7648] + C[C@@H]1COCCN1C2=NC(=NC(=C2)C3(CC3)[S@](=N)(=O)C)C4=C5C=CNC5=NC=C4 [AZD6738] (first compound max 10 µM, 7x7, partner max 10 µM), for which the “combination Emax” value in assay [1] is 0.713; in assay [2], 0.15; in assay [3], 0.822; in assay [4] it was 0.233; in assay [5], 0.36; in assay [6] it was 0.44. In addition, the “combination Emax” value stood at 0.626 in assay [7]; 0.758 in assay [8]; 0.304 in assay [9]; 0.494 in [10]; 0.696 in assay [11]; 0.913 in [12]. In addition, the “combination Emax” value in assay [13] is 0.58; in assay [14] it was 0.859; in assay [15], 0.575; in [16] it was 0.402; in [17], 0.647; in assay [18], 0.63. For the same molecule, the “combination Emax” value in assay [19] was 0.911; in assay [20], 0.426.

On to `COc1cccc(OCCCN)c1-c1cc(Nc2cnc(C#N)cn2)n[nH]1` [Prexasertib] + CN(C)CCCOc1ccc(-c2ccc3ncc4c(c3c2)n(C2CCOCC2)c(=O)n4C)cn1 [AZD0156] (first compound max 1 µM, 7x7, partner max 1 µM), for which the “combination Emax” value in [1] worked out at 0.843; in [2], 0.364; in assay [3], 0.894; in assay [4], 0.758; in assay [5], 0.66; in assay [6] it was 0.434. Further, the “combination Emax” value in assay [7] was determined as 0.799; in assay [8], 0.837; in assay [9], 0.179; in assay [10], 0.579; in [11], 0.724; in assay [12], 0.842. For the same molecule, the “combination Emax” value in assay [13] stood at 0.718; in assay [14], 0.876; in assay [15] it was 0.63; in assay [16], 0.42; in assay [17], 0.858; in assay [18], 0.622. The “combination Emax” value came to 1 in [19] and 0.563 in assay [20].

As to `CCN(CCO)CCCOc1ccc2c(Nc3cc(CC(=O)Nc4cccc(F)c4)[nH]n3)ncnc2c1` [AZD2811] + O=C(c1cc(Cc2n[nH]c(=O)c3ccccc23)ccc1F)N1CCN(C(=O)C2CC2)CC1 [Olaparib] (first compound max 1 µM, 7x7, partner max 10 µM), the “combination Emax” value in assay [1] turned out to be 0.295; in assay [2], 0.237; in assay [3], 0.434; in assay [4], 0.147; in [5] it was 0.244; in assay [6], 0.513. In addition, the “combination Emax” value in assay [7] was 0.201; in assay [8], 0.331; in [9], 0.236; in [10], 0.215; in [11], 0.192; in [12], 0.289. The “combination Emax” value in assay [13] amounted to 0.752; in assay [14], 0.479; in assay [15], 0.406; in assay [16], 0.222; in [17], 0.208; in assay [18], 0.269. Further, the “combination Emax” value in assay [19] worked out at 0.807; in assay [20], 0.215.

`Cc1cc2ncnn2cc1Nc1ncc2c(n1)n(C1CCOCC1)c(=O)n2C` [AZD7648] + CN(C)CCCOc1ccc(-c2ccc3ncc4c(c3c2)n(C2CCOCC2)c(=O)n4C)cn1 [AZD0156] (first compound max 10 µM, 7x7, partner max 1 µM): the “combination Emax” value in [1] worked out at 0.237; in assay [2] it was 0.186; in [3] it was 0.514; in [4], 0.116; in [5], 0.176; in assay [6] it was 0.23. The “combination Emax” value amounted to 0.366 in assay [7]; 0.417 in assay [8]; 0.271 in [9]; 0.378 in assay [10]; 0.239 in assay [11]; 0.372 in [12]. Further, the “combination Emax” value amounted to 0.338 in [13]; 0.366 in [14]; 0.219 in assay [15]; 0.35 in assay [16]; 0.215 in assay [17]; 0.311 in [18]. Besides, the figures for the “combination Emax” value in [19] and in [20] were 0.368 and 0.151, respectively.

`COc1nnc2ccc(N3CCC(c4ccc(OCCN5CCN(C)C(=O)[C@H]5C)cc4)CC3)nn12` [AZD5153] + Cn1cnc2c(F)c(Nc3ccc(Br)cc3Cl)c(C(=O)NOCCO)cc21 [Selumetinib] (first compound max 1 µM, 7x7, partner max 10 µM): the “combination Emax” value turned out to be 0.247 in assay [1]; 0.825 in assay [2]; 0.98 in [3]; 0.54 in assay [4]; 0.616 in [5]; 0.597 in assay [6]. For the same molecule, the “combination Emax” value in [7] came to 0.966; in assay [8], 0.659; in assay [9] it was 0.377; in [10], 0.843; in assay [11], 0.814; in assay [12] it was 0.573. For the same molecule, the “combination Emax” value turned out to be 0.454 in assay [13]; 0.521 in assay [14]; 0.509 in assay [15]; 0.457 in [16]; 0.63 in [17]; 0.573 in assay [18]. Moreover, the “combination Emax” value was found to be 0.451 in [19] and 0.596 in assay [20].

On to `CC(=O)c1c(C)c2cnc(Nc3ccc(N4CCNCC4)cn3)nc2n(C2CCCC2)c1=O` [Palbociclib] + Cc1c2c(nn1C)CSCc1cc(n(C)n1)CSc1cc(c3ccccc3c1)OCCCc1c(C(=O)O)n(C)c3c-2c(Cl)ccc13 [AZD5991] (first compound max 10 µM, 7x7, partner max 1 µM), for which the “combination Emax” value was 0.307 in [1]; 0.21 in [2]; 1 in assay [3]; 0.167 in [4]; 0.301 in [5]; 0.412 in [6]. Also, the “combination Emax” value in assay [7] is 0.675; in [8] it was 0.405; in [9], 0.204; in [10] it was 0.821; in assay [11], 0.686; in [12] it was 0.467. Also, the “combination Emax” value turned out to be 0.329 in [13]; 0.575 in [14]; 0.202 in assay [15]; 0.306 in assay [16]; 0.426 in [17]; 0.365 in assay [18]. Moreover, the entries for the “combination Emax” value in assay [19] and in [20] were 0.264 and 0.0542, respectively.

As for `CCc1c2c(nc3ccc(O)cc13)-c1cc3c(c(=O)n1C2)COC(=O)[C@]3(O)CC` [SN-38] + CN(C)CCCOc1ccc(-c2ccc3ncc4c(c3c2)n(C2CCOCC2)c(=O)n4C)cn1 [AZD0156] (first compound max 0.3 µM, 7x7, partner max 1 µM), the “combination Emax” value in [1] was found to be 0.472; in assay [2], 0.281; in [3] it was 0.78; in [4] it was 0.449; in [5], 0.523; in assay [6] it was 0.817. Further, the “combination Emax” value in assay [7] worked out at 0.774; in assay [8] it was 0.917; in [9], 0.337; in assay [10] it was 0.344; in assay [11], 0.814; in assay [12], 0.802. Further, the “combination Emax” value worked out at 0.486 in assay [13]; 0.909 in [14]; 0.839 in assay [15]; 0.882 in [16]; 0.402 in assay [17]; 0.397 in [18]. Besides, the “combination Emax” value worked out at 0.549 in [19] and 0.374 in assay [20].

These data come from the supplement of paper PMC11061612.
